Experimental findings from PubChem BioAssay (NCI) are described below.

Broadly, the TGI is the concentration at which net growth stops. Read a high TGI as less potent growth arrest. By GI50 is commonly meant the concentration giving 50% growth inhibition.

What all share (experiment): DTP human tumour cell line panel, 48 h
The subject of experiment [1] is A549 NSCLC.
Experiment [2] deals with UACC-62 melanoma.
In experiment [3] the test system is SK-OV-3 ovarian.
The subject of experiment [4] is DMS 114 small cell lung.
Experiment [5] concerns CAKI-1 renal.
The test system of experiment [6] is COLO 205 colon.
Experiment [7] relates to M14 melanoma.
The test system of experiment [8] is U251 CNS.
The subject of experiment [9] is HOP-18 NSCLC.
Experiment [10] relates to MCF7 breast.

Several values for one entry are separate records, joined by “and”; a condition that tells them apart may be missing. Equal values may be shown once.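 Interpolation was linear, between the two tested concentrations surrounding the appropriate level; five concentrations were tested over 48 hours in 96-well plates. GI50: concentration for 50% inhibition of growth. TGI: total growth inhibition.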 Some results are limits rather than exact numbers.

Turning to `CN(C(=O)C12C3C4C1C1C2C3C41C(N)=O)C(C)(C)C` (configuration not stated), the TGI in experiment [1], in experiment [2], in [3], in experiment [4], in [5] and in experiment [6] was > 100 µM each time. Besides, the concentration for total growth inhibition (TGI) in experiment [7] is > 100 µM.

Turning to `COc1c(O)c2c3c(cc(C)cc3c1C(C)C)OC2`, the TGI in experiment [8], in experiment [9], in experiment [1], in [2], in experiment [3] and in [6] was > 100 µM each time. For the same compound, in experiment [7], the TGI was > 100 µM.

With `CCCCCCC[CH2][Sn]([CH2]CCCCCCC)([O]c1cccc2cccnc12)[O]c1cccc2cccnc12`, the GI50 in experiment [8] is 1.72 µM; in experiment [1] it was 3.18 µM; in [2] it was 1.82 µM; in experiment [4], 1.39 µM; in experiment [5] it was 2.54 µM; in experiment [6], 1.86 µM. The GI50 in experiment [7] is 1.33 µM. Moreover, the TGI in experiment [8] came out at 3.25 µM; in [1] it was 12 µM; in experiment [2] it was 3.9 µM; in experiment [4], 3.08 µM; in experiment [5], 8.41 µM; in experiment [6], 3.41 µM. This compound also returned a total growth inhibition concentration (TGI) in experiment [7] of 3.17 µM.

With `c1cncc(C2N3CCCCC3[C@@H]3c4[nH]c5ccccc5c4CCN23)c1` (some centres not stated), the TGI in experiment [8], in [9], in experiment [1], in experiment [2], in [3] and in [5] was > 100 µM throughout. Besides, the total growth inhibition concentration (TGI) in experiment [7] is > 100 µM.

In the case of `COc1cc2ccnc3c2c(c1OC)-c1coc(SC)c1-3`, the TGI in experiment [8], in experiment [9], in experiment [1], in [2], in [3] and in [5] was > 100 µM in each case. Also, the TGI in experiment [6] and in experiment [7] was > 100 µM each time.

On to `CC(=O)Nc1ccc(S(=O)(=O)N/N=C/CN2C(=O)c3ccccc3C2=O)cc1`, for which the total growth inhibition concentration (TGI) in experiment [8], in experiment [1], in [2], in [4], in experiment [5] and in [6] was > 100 µM each time. For the same compound, the TGI in experiment [7] was > 100 µM.

On to `CCOC(C[C@H](O[Si](C)(C)C(C)(C)C)[C@H]1COC(=S)S1)OCC`, for which the TGI in experiment [8], in [1], in experiment [4], in experiment [6] and in experiment [7] was > 100 µM each time.

With `O=C(O)CC[C@H](NC(=O)c1ccc(-n2nc3ccc(O)cc3nc2=O)cc1)C(=O)O`, the TGI in [8], in experiment [9], in [1], in [2], in experiment [4] and in experiment [6] was > 100 µM in each case. In addition, the TGI in experiment [7] is > 100 µM.

For `CCOC(=O)/C(C1=NCCN1)=C(\O)c1ccccc1`, the TGI in experiment [8], in [9], in experiment [1], in experiment [2], in experiment [5] and in experiment [6] was > 100 µM each time. For the same compound, the TGI in [7] is > 100 µM.

As to `OC1(C23CC4CC(CC(C4)C2)C3)CSCC1(O)C12CC3CC(CC(C3)C1)C2` (configuration not stated), the concentration for total growth inhibition (TGI) in [1], in [2], in experiment [3], in experiment [4], in experiment [5] and in [6] was > 100 µM each time. The TGI in experiment [7] is > 100 µM.

On to `CC[C@@]1(O)C(=O)OCc2c1cc1n(c2=O)Cc2cc3cc4c(cc3nc2-1)OCO4`, for which the TGI in experiment [8] is 0.0171 µM and 0.0613 µM; in [9] it was 0.609 µM; in experiment [1], 0.177 µM and 0.136 µM; in experiment [2], 0.00717 µM; in experiment [4], 0.0273 µM and 0.0398 µM; in experiment [6] it was 0.71 µM. For the same compound, the GI50 in experiment [9] is < 0.001 µM; in experiment [3], < 0.0324 µM; in experiment [6] it was < 0.0341 µM.

As for `COc1ccc2c(CN3CCCC[C@H]3C(=O)O)cc3cc4c(cc3c2c1)OCO4`, the GI50 in experiment [8] was 1.96 µM; in [1] it was 1.1 µM; in experiment [10], 0.366 µM; in experiment [2], 1.02 µM; in experiment [3], 3.25 µM; in experiment [5], 0.747 µM. For the same compound, the GI50 in experiment [6] was 0.494 µM; in experiment [7], 3.72 µM. For the same compound, the TGI in [8] was 5.4 µM; in experiment [1], 4.25 µM; in experiment [10], 2.8 µM; in experiment [2], 2.34 µM; in experiment [3] it was 23.1 µM; in experiment [5], 3.37 µM. The TGI in [6] amounted to 2.88 µM; in [7], 10.5 µM.

As for `C#CC#CC#CC#CC#CC#CC#CC#CCC1OCC(COC(=O)O[C@@H](C(=O)O[C@H]2C[C@@]3(O)[C@@H](OC(=O)c4ccccc4)[C@@H]4[C@]5(OC(C)=O)CO[C@@H]5C[C@H](O)[C@@]4(C)C(=O)[C@H](OC(C)=O)C(=C2C)C3(C)C)[C@@H](NC(=O)c2ccccc2)c2ccccc2)O1` (some centres not stated), the GI50 in [8] is 0.162 µM; in experiment [1] it was 0.175 µM; in experiment [10], 0.0461 µM; in experiment [2] it was 0.511 µM; in experiment [3] it was 0.51 µM; in experiment [5], 0.446 µM. Also, the GI50 in experiment [6] is 0.103 µM; in experiment [7] it was 0.16 µM. Moreover, the TGI in [8], in experiment [1], in experiment [10], in [2], in experiment [3] and in experiment [5] was > 33.3 µM throughout. The TGI in experiment [6] was > 26.8 µM.

For the compound `Cc1ccc2c(c1)-c1c3c(nn1-c1ccccc1)-c1ccccc1SC3O2` (configuration not stated), the TGI in experiment [8], in [9], in experiment [1], in [3], in experiment [4] and in experiment [6] was > 100 µM each time.
